Results reported in PMC12775823, “Glucosylceramide regulates depression through activating peroxisome proliferator-activated receptor gamma in dorsal striatum” (Theranostics, 2026).
Where a name gives a salt, the structure may show the parent alone.

Legend:
D2-Pparg^f/f mice = assay: Behavioral tests in D2-Pparg f/f mice after intra-dorsal striatal microinfusion; assay type: in vivo; settings: UNC 10 μM, 1 μL/side
Description: For intracranial injection, mice were surgically implanted with sterilized guide cannulae in dorsal striatum. Intra-dorsal striatal injection of PDMP (100 μM, 1 μL/injection), pioglitazone (100 μM, 1 μL/injection), UNC (10 μM, 1 μL/injection) was performed 30 min before behavioral test. Mice were intraperitoneally injected with CNO (1 mg/kg/d) before behavioral test.
(§1) Elevated plus maze test (EPMT).
(§2) Light-dark Transition test (LDT).
(§3) Sucrose preference test (SPT).
(§4) Forced swimming test (FST).

PPARγ target genes = assay: qRT-PCR of PPARγ target genes in PPARγ-overexpressing N2a cells; assay type: cell-based; settings: 0.1, 1 and 10 μM
CRS-induced mice = assay: Behavioral tests (OFT, EPMT, LDT, SPT, FST) in chronic restraint stress mice, intra-dorsal striatal infusion; assay type: in vivo
Description: For intracranial injection, mice were surgically implanted with sterilized guide cannulae in dorsal striatum. […] Mice were intraperitoneally injected with CNO (1 mg/kg/d) before behavioral test.
Chronic restraint stress (CRS). For the CRS protocol, male C57BL/6J mice (8-10 weeks old) were obtained from Charles River Laboratories (Beijing, China). Mice were individually placed into well-ventilated 50 mL conical restraint tube (suitable for mice weighing 20-25 g) with multiple holes for 4 h daily between 10:00 AM and 2:00 PM to minimize circadian rhythm variations. The restraint stress procedure was conducted for 14 consecutive days. Then, all behavioral test were performed between 10:00 AM and 18:00 PM.
as §1, §2, §3, §4

[1] = system: depression and bipolar disorder; design: method as in PMID 30699881; settings: clinical; ref [10]; cited from earlier work
D2-Ugcg^f/f mice = assay: Behavioral tests in D2-Ugcg f/f mice after intra-dorsal striatal microinfusion; assay type: in vivo; settings: pioglitazone 1 μM, 1 μL per side
[2] = LC-MS of GlcCer levels in dorsal striatum of CRS-induced mice; assay type: in vivo; settings: intra-dorsal striatum infusion of pioglitazone, GlcCer or combination
Description: The procedure for the extraction of sphingolipids was established according to the LIPID MAPS protocol with modifications. Briefly, dorsal striatal tissues were added 0.5 mL of MeOH, 0.25 mL of CHCl3 and 7.5 μL of internal standards cocktail (2.5 μM). For sphingolipidomics, 5 μL of internal standards mixture (LM6002, Avanti polar lipids) was added. The mixture was then ultrasonicated for 45 s at room temperature and incubation at 48°C overnight. To avoid potentially interfering glycerolipids, 75 μL of KOH in MeOH (1M) was added, followed by incubation in a heat block at 200 rpm for 2 h at 37 °C. After neutralization, a four-step extraction process was performed to obtain SPL extract for analysis. The supernatant was transferred to a new Eppendorf tube and the resides were added l mL of MeOH and 2 mL of CHCl3, followed by centrifugation at 3800 rpm for 8 min. […] Sphingolipidomics were measured with ultra-high-performance liquid chromatography (UPLC) coupled with hybrid Quadrupole-Orbitrap high resolution mass spectrometry (Q-Exactive-HRMS). […] For […] quantitation, brain tissues were quantified by UPLC-MS/MS using a Q-Exactive-HRMS with UPLC. […] Quantification of […] with various fatty acid chain lengths were achieved using the calibration curve of each GlcCer species with closest number of chain length. […]

PPARγ = system: T1, PPARγ; assay: PPARγ mRNA, protein and transcriptional activity in dorsal striatum of CRS-induced mice; assay type: in vivo
T1 construct: from tissue; host or cells: mouse dorsal striatum
From the text: Dorsal striatal tissues were processed in accordance with the RNA isolation kit's instructions (RC102/RC112; Vazyme Biotech Co.,Ltd), mRNA was reverse transcribed using HiScript® III All-in-one RT SuperMix (Vazyme Biotech Co.,Ltd), and cDNA was amplified using SYBR Green (Vazyme Biotech Co.,Ltd). The 2^-ΔΔCt method was used to analyze gene expression, and the relative level of the target gene was normalized to Gapdh. The primer sequences can be found in Supplemental materials Table S1.
Brain tissues were cut into small pieces and then centrifuged at 13,000 g for 15 min at 4 °C. Supernatants were collected, and proteins concentrations were determined by BCA assay. Samples were denatured at 95 °C for 5 min and subsequently stored at -80 °C for further use. Protein samples were loaded onto 10% SDS-PAGE and transferred on PVDF membranes. After being blocked with 5% nonfat dry milk in Tris-buffered saline with 0.1% Tween-20 for 1.5 h, the PVDF membranes were incubated with corresponding primary antibodies overnight at 4 °C. Membranes were then incubated with HRP-conjugated secondary antibodies for 1 h at room temperature and measured with chemiluminescence imaging system (ChemiScope; Clinx, China).
Nuclear extracts were prepared from N2a cells using a nuclear extraction kit according to the manufacturer protocol. The binding reaction between PPARγ and PPRE was carried out at 4°C for 16 h using 3 μg of nuclear extracts. The binding activity between PPARγ and PPRE was indicated by the change of optical density (OD) at 405 nm, and an enzyme reaction was measured by HRP-conjugated antibody in complex of PPRE/ PPARγ/antibody.

[3] = system: D2-MSNs in dorsal striatum of D2-Ugcg^f/f mice; assay: DREADD (AAV-hM3Dq) activation of D2-MSNs, c-Fos and behavioral tests; settings: CNO 1 mg/kg, i.p.
Description: Open field test (OFT). […] Mice were gently placed in the center and allowed to explore the area for 5 min. The total distance travelled and time spent in the center (20 × 20 cm^2) were recorded using EthoVision version 7.0 software (Noldus Information Technology, Netherlands).
Elevated plus maze test (EPMT). The apparatus consisted of two open arms (30 cm × 5 cm) and two closed arms (30 cm × 5 cm × 15 cm) extending from a central platform (5 cm × 5 cm), elevated 50 cm above the floor. Mice were placed on the central platform facing one of the open arms and allowed to explore the maze for 5 min. Behavior was recorded using a video camera positioned above the maze in conjunction with Anymaze tracking software (Stoelting Co.; Wood Dale, IL, USA).
Forced swimming test (FST). Each mouse was placed individually into a water-filled cylinder maintained at 23-25 °C and allowed to swim for 6 min. The first 2 min were considered an acclimation period, and data from this period were not included in the analysis. During the remaining 4 min, the behavior of the mice was recorded using EthoVision version 7.0 software (Noldus Information Technology, Netherlands).
D2-Cre or D2-Ugcg^f/f mice were bilaterally injected with AAV-hM3Dq into the dorsal striatum (AP +0.8 mm, ML ±1.5 mm, DV -3.0 mm). Following surgery, mice were given 3 weeks to express the virus before starting behavioral tests. Prior to each behavioral test, mice received an injection of Clozapine N-oxide (CNO; 1 mg/kg, i.p.; Sigma-Aldrich, USA) 30 min before the testing session.

GCS = system: T2, GCS; assay: GCS activity in dorsal striatum of CRS-induced mice; assay type: in vivo; settings: intra-dorsal striatal PDMP
T2 construct: from tissue; host or cells: mouse dorsal striatum

[4] = D2-Ugcg^f/f mice with AAV-hM3Dq
[5] = CRS mice, PDMP 100 μM, 1 μL/side

Clc1cccc(N2CCN(CCCOc3ccc4scnc4c3)CC2)c1Cl [UNC, UNC9995]
reductions in the OFT, EPMT, LDT, SPT, and FST (D2-Pparg^f/f mice): effectively reversed

CCc1ccc(CCOc2ccc(CC3SC(=O)NC3=O)cc2)nc1 (centres unmarked) [pioglitazone, Pioglitazone hydrochloride]
expression of Adipoq and Leptin (PPARγ target genes): robustly upregulated | expression of Angptl4 (PPARγ target genes): significantly increased | expression of adipogenesis-related genes (Srebp-1c, Adrp, Fabp4, Fasn, Cd36) (PPARγ target genes): strongly induced | stress-induced depression-like behaviors (overall) (CRS-induced mice; CRS mice, administration of GlcCer, pioglitazone or combined): reverses | symptoms of depression and bipolar disorder [1]: proven effective | anxiety- and depression-like behaviors in the OFT, EPMT, LDT, SPT, and FST (D2-Ugcg^f/f mice): effectively reversed | GlcCer levels in the dorsal striatum (LC-MS) [2]: did not alter | PPARγ mRNA or protein expression (PPARγ; intra-dorsal striatum pioglitazone, GlcCer or combination): neither pioglitazone, GlcCer, nor their combination altered

C[N+]1([O-])CCN(C2=Nc3cc(Cl)ccc3Nc3ccccc32)CC1 [CNO, Clozapine-N-oxide]
expression of c-Fos ([3]; AAV-hM3Dq-injected mice): significantly increased | immobility time in the FST [3, 4]: lower | time in the center area in the OFT [3, 4]: more time | time in the light room in the LDT [3, 4]: more time | time in the open arms in the EPMT [3, 4]: more time

CCCCCCCCCC(=O)N[C@@H](CN1CCOCC1)[C@@H](O)c1ccccc1.Cl [PDMP, (-)-L-threo-PDMP hydrochloride]
immobility time in the FST (CRS-induced mice; [5]): reduced | sucrose preference in the SPT (CRS-induced mice; [5]): restored | time spent in light area in the LDT (CRS-induced mice; [5]): increased | time spent in open arms in the EPMT (CRS-induced mice; [5]): increased | time spent in the center area in the OFT (CRS-induced mice; [5]): increased | anxiety- and depression-like behaviors following CRS (CRS-induced mice; PDMP 100 μM, 1 μL/side, intra-dorsal striatum): significantly ameliorated | GCS activity in the dorsal striatum (GCS): significantly enhanced | PPARγ activity in the dorsal striatum (PPARγ; PDMP treatment): significantly enhanced | PPARγ mRNA or protein expression (PPARγ; PDMP treatment): did not alter
